Data from US6852688B2, “Compositions for treating diabetic retinopathy and methods of using same” (University of Florida, priority 2000, dated 2005).
Several values for one entry are separate records, joined by “and”; a condition that tells them apart may be missing. Equal values may be shown once.

Columns and labels:
[1] = tested on: patients with type I diabetes and severe non-proliferative DR or non-"high risk" proliferative DR; experiment: Phase I human study: octreotide plus conventional diabetes management versus conventional management alone, 15 months; assay type: in vivo
From the text: A total of 39 patients with type I or type II diabetes and diagnosed with either severe non-proliferative DR or non-“high risk” proliferative DR were enrolled between 1991 and 1996 into Phase I or Phase II of the study. Subjects were recruited from patients treated for diabetes mellitus at the University of Florida Adult Endocrinology clinics and referrals from community retinal specialists. All patients provided written informed consent to participate in required study procedures. Volunteers in both phases of the study were randomized to receive conventional diabetes management alone (control group) or octreotide treatment with conventional diabetes care (OCT group). Octreotide was administered via subcutaneous injection 4 times daily or via continuous subcutaneous infusion with doses individually adjusted to the highest tolerated somatostatin analogue levels. The intent was to increase the dose of octreotide until serum IGF-1 was decreased to the hypopituitary range of 75 ng/mL or drug related adverse effects limited octreotide dosing. […] It was expected that approximately 35 to 50% of the control group would progress to photocoagulation within the 15-month period (The Diabetic Retinopathy Study Research Group: Indications for photocoagulation treatment of diabetic retinopathy: Diabetic Reinopathy Study Report No. 14. Int. Opthalmol. Clin. 27:239 (1987)).
Subjects were evaluated at monthly intervals for ocular changes using procedures established in the Early Treatment Diabetic Retinopathy Study (ETDRS) trial (Techniques for scatter and local photocoagulation treatment of diabetic retinopathy. Early Treatment Diabetic Retinopathy Study Report No. 3. The Early Treatment Diabetic Retinopathy Study Research Group. Int Ophthalmol Clin. 27:254-64 (1987)). Ocular examination included fluorescein angiograms and stereoscopic fundis photographs using seven standard photographic fields. Each field was 30 degrees with the first 2 fields centered on the disc and macula. The other fields imaged the surrounding retina. Photographs were assessed for severity of retinopathy using an extension of the modified Airlie House classification scheme. Severe non-proliferative DR required the presence of at least 3 of the following characteristics: cotton wool patches, venous beading, intraretinal microvascular abnormalities (IRMA) or extensive retinal hemorrhages. Inclusion criteria also required understanding the study protocol and willingness to participate in required study procedures. Exclusion criteria included: current use of tobacco products, regular medication other than prescribed antidiabetic agents and thyroxine, history of psychiatric illness, illicit drug use, sitting diastolic blood pressure values greater than […], serum creatinine clearance below 30 ml/min, and a body mass index that differed more than 20% from normal published ranges for the subject's height and sex.
Sixteen subjects with Type I diabetes participated in and completed the Phase-I protocol, with 8 patients randomly assigned to conventional diabetes management and 8 patients assigned treatment with maximally tolerated doses of octreotide in conjunction with routine diabetes management.
Initial octreotide doses of 500 μg/day were escalated based on IGF-1 levels to a maximum of 3000 μg/day during the 15-month treatment period. The range of maximally tolerated octreotide doses used throughout the 15-month treatment period was 600 to 3000 μg/day. The Phase protocol included a 5-day evaluation period with patients confined to the clinical research unit at study initiation. Octreotide treated patients were monitored for response to the initial 500 μg/day dose of octreotide (administered as a constant subcutaneous infusion). GH secretion was quantified from area under the serum concentration versus time curve (AUC) for blood samples collected every 2 to 4 hours throughout a 24-hour period. […]

[2] = tested on: human retinal endothelial cells; settings: rapidly proliferating cells, in vitro; cited from earlier work
[3] = tested on: patients with early DR; settings: cited from earlier work
[4] = tested on: patients with Type I or Type II diabetes and severe non-proliferative DR or non-"high risk" proliferative DR; experiment: Phase II human study: octreotide plus thyroid hormone (levothyroxine) versus conventional diabetes management, 15 months; assay type: in vivo; settings: thyroxine alone 100 to 200 μg/day for hypothyroidism, no octreotide
From the text: A total of 39 patients with type I or type II diabetes and diagnosed with either severe non-proliferative DR or non-“high risk” proliferative DR were enrolled between 1991 and 1996 into Phase I or Phase II of the study. Subjects were recruited from patients treated for diabetes mellitus at the University of Florida Adult Endocrinology clinics and referrals from community retinal specialists. All patients provided written informed consent to participate in required study procedures. Volunteers in both phases of the study were randomized to receive conventional diabetes management alone (control group) or octreotide treatment with conventional diabetes care (OCT group). Octreotide was administered via subcutaneous injection 4 times daily or via continuous subcutaneous infusion with doses individually adjusted to the highest tolerated somatostatin analogue levels. […]
Subjects were evaluated at monthly intervals for ocular changes using procedures established in the Early Treatment Diabetic Retinopathy Study (ETDRS) trial (Techniques for scatter and local photocoagulation treatment of diabetic retinopathy. Early Treatment Diabetic Retinopathy Study Report No. 3. The Early Treatment Diabetic Retinopathy Study Research Group. Int Ophthalmol Clin. 27:254-64 (1987)). […] Photographs were assessed for severity of retinopathy using an extension of the modified Airlie House classification scheme. […]

[5] = octreotide treated group, p<0.05 vs conventionally treated group

Which “patients requiring PRP during the 15-month study” value ([1]; 8 patients per group, control also 4 of 8) does the source give for `C[C@@H](O)[C@@H]1NC(=O)[C@H](CCCCN)NC(=O)[C@@H](Cc2c[nH]c3ccccc23)NC(=O)[C@H](Cc2ccccc2)NC(=O)[C@@H](NC(=O)[C@H](N)Cc2ccccc2)CSSC[C@@H](C(=O)N[C@H](CO)[C@@H](C)O)NC1=O` [octreotide] here?
Its value is “Four and 4 of 8”.

What about the “mean time for disease progression to laser surgery (PRP)” value ([1]; control 6.0 months, not different) of the same molecule?
The value was 8.5 months.

What about the “mean HbA1c after at least 3 months of study” value ([1]; conventional management 8.1%±1.8%, p<0.05) of the same molecule?
Its value is 6.4%±0.9.

What about the “mean decrease in 24 hour AUC for GH (GH secretion)” value ([1]; initial 500 μg/day constant subcutaneous infusion, day 5 of treatment, compared to control, p<0.05) of the same molecule?
The value was 33%.

And the “patients with IGF-1 decreased into the hypophysectomized range of 75 ng/ml” value ([1]; maximally tolerated doses 600 to 3000 μg/day)?
Its value is 1 of 8.

And the “effect on progression of DR” value ([1]; maximally tolerated octreotide in the absence of thyroid hormone replacement)?
The value was “not effective in retarding progression of DR”.

What about the “mean IGF-1 at the end of treatment” value ([1]; octreotide 600 to 3000 μg/day, 15 months, decreased from 241±58 ng/ml at study enrollment, p<0.05 vs control) of the same molecule?
The value was 130 ± 38 ng/mL.

What about the “decrease in insulin requirements” value [1, 5] of the same molecule?
Its value is 29%.

What about the improvement in proteinuria [1, 5] of the same molecule?
Its improvement in proteinuria is 82%.

What about the “effect on IGF-I and b-FGF stimulated growth of cells” value [2] of the same molecule?
Its value is “direct inhibitory effects”.

What about the “retinal disease versus conventionally managed patients” value ([3]; early DR, one year, 400 μg/day) of the same molecule?
Its value is “no difference”.

What about the thyroid adverse finding ([3]; infused for one year with 400 μg/day, no evidence for clinical significance) of the same molecule?
Its thyroid adverse finding is “mild hypothyroidism”.

For `N[C@@H](Cc1cc(I)c(Oc2cc(I)c(O)c(I)c2)c(I)c1)C(=O)O` [thyroxine, levothyroxine], which “control patients receiving thyroxine who required PRP” value [4] is on record?
The value was 3 of the 7.
